Key:
[1] = test system: mice; experiment: Acute hypobaric hypoxia: lifespan of mice at the height of 11,000 m; format: in vivo, mice (male, tetrahybrids)
Description: (§1) The antihypoxic effect of the compound according to the present invention was studied in comparison with pyracetam on various experimental models of hypoxic states in experiments on mice and rats. The compound according to the present invention and pyracetam were administered intraperitoneally in the form of an aqueous emulsion prepared with Tween-80.
(§2) The studies were carried out on a model of an acute hypobaric hypoxia.
(§3) An acute […] hypoxia was modelled in a flow-type barometric chamber at an ambient temperature of 17°-20° C. with absorption of carbon dioxide and water.
(§4) The test animals (male mice, tetrahybrids) with a mass of 15-22 g of the same generation were "lifted" (under simulation conditions) at the mean speed of 50 m/sec to the height of 11,000 m at which the lifespan (in minutes) for the same series of experiments was evaluated. Furthermore, the mice were discretely lifted at the same speed to the height of 10,000 m where they stayed for 1 minute and then to the height of 11,000 m, where they again were kept for 1 minute and so on, till their death for the determination of the height "ceiling", The animals' death was adjudicated by the occurrence of an agonal breathing against the background of convulsions. The total number of mice employed in the experiments was 200.
(§5) As the comparison preparation pracetam was used. The compound according to the present invention and pyracetam were administered one hour before the "lift".

[2] = test system: mice; experiment: Memory consolidation: conditioned reflex of passive avoidance in a two-chamber unit; format: in vivo, mice (nondescript male white)
Description: The study of the effect on processes of consolidation (fixation) of memory was carried out on 400 nondescript male white mice with a mass of 18-20 g using the procedure of a conditioned reflex of passive avoidance in a two-chamber unit, one of the chambers being darkened. In the bottom of the dark chamber an electrode floor is mounted, to which an electric current (50-60 V) can be applied.
Due to their biological specific features, mice prefer to stay in the dark chamber. At the end of the exposure lasting for 180 seconds of the residence of an animal in the dark chamber which, as a rule, actually takes place, an electric current is applied to the irritating device and a mouse is forced to leave its shelter.
Therefore, after a single-time training a conditioned reflex of passive avoidance is elaborated in mice. The resproduction of the effect which is evaluated by the laten period time (in seconds) of the visit to the dark chamber (or by the time of residence in the light chamber) was effected after 24 hours.
The compound according to the present invention and pyracetam were administered in doses of 200-250 mg/kg (pyracetam also in the dose of 1,000 mg/kg) intraperitoneally right after elaboration of the conditioned reflex.

[3] = test system: mice; experiment: Acute hypobaric hypoxia: height ceiling for mice (Hmax); format: in vivo, mice (male, tetrahybrids)
Description: as §1, §2, §3, §4, §5

[4] = test system: mice; experiment: Lifespan of mice under acute hypoxic hypoxia with hypercapnia (sealed chamber); format: in vivo, mice (nondescript white male)
Description: as §1
Tests were carried out on a model of an acute hypoxic hypoxia with hypercapnia.
The tests were conducted using 540 nondescript while male mice with a mass of 20-22 g. Each mouse was separately placed into a sealed chamber (with the capacity of 250 ml) 60 minutes after administration of the compound according to the present invention in the doses of 50, 100, 250, 500 and 750 mg/kg. The control animals were issued with an isotonic solution of sodium chloride. The antihypoxic activity was assessed by the lifespan of the mice in the sealed chamber (in minutes).

[5] = test system: mice; experiment: Acute normobaric hypoxia: lifespan of mice; format: in vivo
Description: as §1
Investigations were also carried out with a model of an acute normobaric hypoxia.
An acute normobaric hypoxia was simulated in a flow-type barometric chamber at an ambient temperature of 17°-22° C. with absorption of carbon dioxide and water. A gas mixture ([…] and 3% of O2) was admitted into the barometric chamber at the rate of 10 1/min. The lifespan of test animals (mice, rats) in the chambers was recorded since the moment of the mixture admission into the chamber till the moment of perdition of the animals which was adjudicated by an agonal breathing against the background of convulsions. The modes of administration of the preparations, species of animals and analysis of the results of the experiments are similar to those described hereinbefore for the case of an acute hypobaric hypoxia. The experiments were carried out using 50 mice and 20 rats.

[6] = test system: rats; experiment: Learning speed and performing of electrodefensive conditioned reflex of avoidance; format: in vivo, rats (nondescript male)
Text: The study of the compound according to the present invention for the speed of learning and performing the produced conditioned reflux was effected in experiments on rats using the method of electrodefensive conditioned reflexes of avoidance.
The study of the effect on the learning speed and fulfilment of the elaborated conditioned reflex was effected on 40 nondescript male rats with a mass of 150170 g (4 groups of 10 rats in each) by the method of electrodefensive conditioned reflexes. Conditioned reflexes were trained in all rats for ringing used as a conditional irritation signal supported by a non-conditional irritating agent--electric current (40-50 V) supplied to an electrified floor of a conditioned-reflex chamber. As the criterion for the elaboration of the conditioned reflex the rat's jump onto a stand in response to switching-on of a bell during the first 10 seconds after the beginning of the sound was assumed.
All rats, against the background of elaboration of conditioned reflexes, were administered over 3 weeks (5 times a week) with: the first group--the compound according to the present invention in the dose of 250 mg/kg; the second and third group--pyracetam in the doses of 500 and 1,000 mg/kg; and the fourth group--control--isotonic solution of sodium chloride. The administration was effected intraperiotoneally 24 hours before the experiment.

NC(=S)CN1CCCC1=S [Compound of the present invention, 1-thiocarbamylmethylpyrrolidine-2-thione]
lifespan of mice at the height of 11,000 m ([1]; 100 mg/kg): 12.58 ± 8.64 min | lifespan of mice at the height of 11,000 m, % (control = 100%) ([1]; 100 mg/kg): 206.2 ± 59.7% | lifespan of mice at the height of 11,000 m ([1]; 250 mg/kg): 19.97 ± 4.93 min | lifespan of mice at the height of 11,000 m, % (control = 100%) ([1]; 250 mg/kg): 327.4 ± 80.8% | lifespan of mice at the height of 11,000 m ([1]; 500 mg/kg): 30.0 ± 0 min | lifespan of mice at the height of 11,000 m, % (control = 100%) ([1]; 500 mg/kg): 491.8 ± 0.0% | superiority to pyracetam in effect on the lifespan duration at 11,000 m ([1]; versus pyracetam): 3-4 times | effective dose lower than that of pyracetam ([2]; 200 mg/kg versus pyracetam 1.000 mg/kg): 5 times | minimal effective dose ([2]; Mus musculus, ip, 24 h, read-out: effective dose (memory consolidation)): 200 mg/kg | duration of the latent period of the reflex of passive avoidance ([2]; ip, 200 mg/kg, 24 h): 136.2 ± 6.6 s | efficiency of the positive influence upon dose increasing ([2]; up to 500 mg/kg): does not grow | height ceiling for mice (Hmax) ([3]; 250 mg/kg): 14.0 ± 0.707 thous. m | elevation of the height ceiling as compared to the control and pyracetam ([3]; 500 mg/kg): 4,000 m | height ceiling for mice (Hmax) ([3]; 500 mg/kg): 15.57 ± 0.85 thous. m | lifespan of mice under acute hypoxic hypoxia ([4]; 100 mg/kg i.p.): 56.3 min | lifespan of mice under acute hypoxic hypoxia ([4]; 250 mg/kg i.p.): 60.3 min | lifespan of mice under acute hypoxic hypoxia ([4]; 500 mg/kg i.p.): 95.2 min | extension of mice lifespan as compared to the control ([4]; 750 mg/kg): 4 times | increase of mice lifespan as compared to the control ([4]; 750 mg/kg): 324.5% | lifespan of mice under acute hypoxic hypoxia ([4]; 750 mg/kg i.p.): 119.2 min | minimal effective dose ([4]; Mus musculus, ip, read-out: dose beginning with which resistance to acute oxygen insufficiency is enhanced and lifespan extended): 100 mg/kg | increase of resistance of mice to acute normobaric hypoxia as compared to the control ([5]; mice, 250 mg/kg): 4.5 times | lifespan at an acute normobaric hypoxia, mice ([5]; mice, 250 mg/kg): 22.21 ± 3.23 min | lifespan at an acute normobaric hypoxia, mice, % (control = 100%) ([5]; mice, 250 mg/kg): 469.5 ± 68.3% | superiority to pyracetam in effectiveness, mice ([5]; mice, versus pyracetam at 500 mg/kg): 3.2 times | superiority to pyracetam in effectiveness ([5]; versus pyracetam at 250 mg/kg): 5 times | acceleration of elaboration and fixation of a conditioned reflex ([6]; 250 mg/kg): about 2 times | combinations of conditional and non-conditional irritation agents after which the reflex is fixed ([6]; 250 mg/kg): 49-65 combinations | lowering of the latent period of the conditioned reflex as compared to the control ([6]; 250 mg/kg): more than 2 times | latent period of the conditioned reflex of avoidance ([6]; 250 mg/kg, control 2.14±0.71 s): 0.87 ± 0.32 s | effective dose (learning and performing of conditioned response of avoidance in rats) ([6]; rats): 250 mg/kg

NC(=O)CN1CCCC1=O [Pyracetam, 1-carbamidomethylpyrrolidone-2, reference compound]
lifespan of mice at the height of 11,000 m ([1]; 100 mg/kg): inactive | lifespan of mice at the height of 11,000 m ([1]; 250 mg/kg): 6.16 ± 0.72 min | lifespan of mice at the height of 11,000 m, % (control = 100%) ([1]; 250 mg/kg): 101.0 ± 11.8% | lifespan of mice at the height of 11,000 m ([1]; 500 mg/kg): 8.13 ± 2.43 min | lifespan of mice at the height of 11,000 m, % (control = 100%) ([1]; 500 mg/kg): 133.3 ± 39.9% | extension of the latent period of the conditioned reflex of passive avoidance (control = 100%) ([2]; 1.000 mg/kg): 33.7% | effect on the latent period of passive avoidance ([2]; doses lower than 1.000 mg/kg): inactive | effect of extension of the latent period of the reflex of passive avoidance ([2]; only in the dose of 1.000 mg/kg, pyracetam, 1,000 mg/kg): the same effect | height ceiling for mice (Hmax) ([3]; 250 mg/kg): 10.96 ± 0.91 thous. m | height ceiling for mice (Hmax) ([3]; 500 mg/kg): 11.55 ± 0.62 thous. m | lifespan of mice under acute hypoxic hypoxia ([4]; 100 mg/kg i.p.): 27.4 min | lifespan of mice under acute hypoxic hypoxia ([4]; 250 mg/kg i.p.): 33.5 min | lifespan of mice under acute hypoxic hypoxia ([4]; 500 mg/kg i.p.): 39.6 min | lifespan of mice under acute hypoxic hypoxia ([4]; 750 mg/kg i.p.): 34.4 min | extension of mice lifespan as compared to the control ([4]; 2,000 mg/kg): 60% | lifespan of mice under acute hypoxic hypoxia ([4]; 2000 mg/kg i.p.): 45.0 min | lifespan of mice under acute hypoxic hypoxia ([4]; 2000 mg/kg i.p., listed as pyracetam): 45 min | lifespan of mice under acute hypoxic hypoxia ([4]; column 8, dose printed "100" mg/kg (between 750 and 2000), i.p.): 41.4 min | lifespan at an acute normobaric hypoxia, mice ([5]; mice, 250 mg/kg): 3.73 ± 0.254 min | lifespan at an acute normobaric hypoxia, mice, % (control = 100%) ([5]; mice, 250 mg/kg): 87.7 ± 5.97% | lifespan at an acute normobaric hypoxia, mice ([5]; mice, 500 mg/kg): 6.08 ± 0.744 min | lifespan at an acute normobaric hypoxia, mice, % (control = 100%) ([5]; mice, 500 mg/kg): 143.1 ± 17.5% | effect on elaboration and fixation of a conditioned reflex ([6]; 1.000 mg/kg): effect similar to that produced by the compound according to the present inventuion in the dose of 250 mg/kg | latent period of the conditioned reflex of avoidance ([6]; 1.000 mg/kg): 0.98 ± 0.29 s | effect on elaboration and fixation of a conditioned reflex ([6]; 500 mg/kg): inactive

From patent publication US4839380A, “1-Thiocarbamoylmethylpyrrolidine-2-thione, medical compositions of, and anti-hypoxic and nootropic use thereof” (priority 1988, dated 1989)
